Experimental data reported in patent US8518635B2, “Regulation of protein activity by reversible acetylation” (The J. David Gladstone Institutes, priority 2006, dated 2013).
“Also recorded” adds a separate entry of the source.

Tests used:
[1] = tested on: AceCS2; assay: Acetyl-CoA synthetase activity of purified AceCS2; type: biochemical, human; conditions: hyperacetylated AceCS2 from nicotinamide-treated E. coli vs untreated
Method: E. coli DH5α bacteria (Invitrogen) transformed, e.g., with either pTrcHis2C-SIRT3(102-399), pTrcHis2C-SIRT3-H248Y(102-399), pTrcHis2C-SIRT5(12-310), pTrcHis2C-SIRT5(39-310) or pTrcHis2C-AceCS2(38-689) were grown to an A600 nm=0.4, and induced with 0.5 mM isopropyl-β-D-thiogalactopyranoside (IPTG) at 25° C. for 16 h. 6×His-tagged proteins were purified under native conditions at 4° C. using Ni-NTA agarose (Qiagen, Valencia, Calif.). […]
The activity of purified AceCS2 was measured as described (Jones & Lipmann, 1955, in Methods in Enzymology (Academic Press, Vol. 1, pp. 585-591; Barak et al., 2004, J Mol Biol 342:383-401). Each reaction (0.5 mL) contained 100 mM hydroxylamine (pre-neutralized with KOH), 50 mM Tris-HCl (pH 8.0), 20 mM potassium acetate, 10 mM MgCl2, 10 mM ATP, 2 mM DTT and 1 mM CoA. All chemicals (Sigma) were of the highest purity available. Reactions were pre-incubated at 35° C. for 5 min before the addition of purified AceCS2 (6 μg). After 30 min of incubation, 0.5 mL stop solution (10% (w/v) FeCl3, 3.3% (w/v) trichloroacetic acid in 2 N HCl) were added and reactions were incubated on ice for 2 min. The samples were centrifuged for 2 min at 16,200×g to remove turbidity and the generated color was measured at 540 nm. […]

[2] = target: T1, bacterial sirtuins (Escherichia coli, UniProt P75960); assay: Expression of recombinant human AceCS2 in nicotinamide-treated E. coli, acetyl-lysine immunoblot; type: cell-based
T1 construct: endogenous in cells; host or cells: E. coli DH5alpha (Invitrogen)
Method: E. coli DH5α bacteria (Invitrogen) transformed, e.g., with either pTrcHis2C-SIRT3(102-399), pTrcHis2C-SIRT3-H248Y(102-399), pTrcHis2C-SIRT5(12-310), pTrcHis2C-SIRT5(39-310) or pTrcHis2C-AceCS2(38-689) were grown to an A600 nm=0.4, and induced with 0.5 mM isopropyl-β-D-thiogalactopyranoside (IPTG) at 25° C. for 16 h. 6×His-tagged proteins were purified under native conditions at 4° C. using Ni-NTA agarose (Qiagen, Valencia, Calif.). Purified proteins were dialyzed (e.g., against sirtuin storage buffer […], 4 mM MgCl2, 50 mM NaCl, 0.5 mM DTT, 5% glycerol (v/v) or AceCS2 storage buffer [50 mM Tris-HCl (pH 8.0), 4 mM MgCl2, 10% glycerol (v/v)], adjusted to 0.5 g/L and stored frozen at −80° C. To induce acetylation of recombinant AceCS2, nicotinamide (50 mM) was added during protein expression (16 h, 25° C.).
Immunoblots were developed with enhanced chemiluminescence (Amersham Pharmacia Biosciences) or West SuperSignal reagent (Pierce). Membranes were either nitrocellulose or polyvinylidene fluoride (PVDF) (Immun-Blot; Bio-Rad Laboratories).

T1 sequence (P75960 whole entry): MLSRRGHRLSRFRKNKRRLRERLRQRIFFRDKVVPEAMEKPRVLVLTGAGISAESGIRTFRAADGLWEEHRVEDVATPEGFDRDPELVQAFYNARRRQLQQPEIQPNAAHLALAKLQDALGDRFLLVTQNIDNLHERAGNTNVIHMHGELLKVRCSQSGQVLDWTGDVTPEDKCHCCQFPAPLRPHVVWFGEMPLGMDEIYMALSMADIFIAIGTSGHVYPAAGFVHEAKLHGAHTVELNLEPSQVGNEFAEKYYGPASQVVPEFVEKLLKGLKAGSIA

NC(=O)c1cccnc1 [nicotinamide]
specific activity of AceCS2 purified from bacteria treated or not with nicotinamide [1]: significantly lower specific activity
acetylation of mutant AceCS2 protein carrying an arginine residue in position 642 ([2]; E. coli treated with nicotinamide during expression, AceCS2-K642R): did not induce acetylation
acetylation of recombinant human AceCS2 (Lys642) ([2]; wild-type E. coli treated with nicotinamide (50 mM) during protein expression, 16 h, 25° C., AceCS2 wild type): hyperacetylation of recombinant human AceCS2; also recorded: significantly increased its levels of acetylation
